Measurements from ChEMBL document CHEMBL1122626, “(+/-)-4-Aryl-4,5-dihydro-3H-1,3-benzodiazepines. 3. 2-Phenyl and 2-amino analogues as potential antihypertensive agents” (1984).

Experiments:
Rattus norvegicus [1] = experiment: Antihypertensive activity was evaluated in spontaneously hypertensive rat model with base line systolic pressure of 174 mmHg by the indirect tail-cuff method at an oral screening dose of 50 mg/Kg; type: functional, Blood
Rattus norvegicus [2] = experiment: Antihypertensive activity was evaluated in spontaneously hypertensive rat model with base line systolic pressure of 189 mmHg by the indirect tail-cuff method at an oral screening dose of 50 mg/kg.; type: functional, Blood

SMILES	BP (Rattus norvegicus [1])	BP (Rattus norvegicus [2])
N=C(N)NCCN1CCCCCCC1 [GUANETHIDINE]	-20 mmHg	–
CN1C(c2ccccc2)=Nc2ccccc2CC1c1ccccc1.Cl (configuration not stated)	–	-56 mmHg
